12 molecules from patent publication US20040156869A1, “2-substituted quinazolin-4-ylamine analogues” (Neurogen Corporation, priority 2002, published 2004) can be followed below.

The target of the test is human capsaicin receptor (VR1) (Homo sapiens, UniProt Q8NER1). The test can be described thus: Capsaicin receptor binding assay ([3H]RTX competition, VR1-transfected HEK293 membranes).
Chain of human capsaicin receptor (VR1) (Q8NER1 whole entry): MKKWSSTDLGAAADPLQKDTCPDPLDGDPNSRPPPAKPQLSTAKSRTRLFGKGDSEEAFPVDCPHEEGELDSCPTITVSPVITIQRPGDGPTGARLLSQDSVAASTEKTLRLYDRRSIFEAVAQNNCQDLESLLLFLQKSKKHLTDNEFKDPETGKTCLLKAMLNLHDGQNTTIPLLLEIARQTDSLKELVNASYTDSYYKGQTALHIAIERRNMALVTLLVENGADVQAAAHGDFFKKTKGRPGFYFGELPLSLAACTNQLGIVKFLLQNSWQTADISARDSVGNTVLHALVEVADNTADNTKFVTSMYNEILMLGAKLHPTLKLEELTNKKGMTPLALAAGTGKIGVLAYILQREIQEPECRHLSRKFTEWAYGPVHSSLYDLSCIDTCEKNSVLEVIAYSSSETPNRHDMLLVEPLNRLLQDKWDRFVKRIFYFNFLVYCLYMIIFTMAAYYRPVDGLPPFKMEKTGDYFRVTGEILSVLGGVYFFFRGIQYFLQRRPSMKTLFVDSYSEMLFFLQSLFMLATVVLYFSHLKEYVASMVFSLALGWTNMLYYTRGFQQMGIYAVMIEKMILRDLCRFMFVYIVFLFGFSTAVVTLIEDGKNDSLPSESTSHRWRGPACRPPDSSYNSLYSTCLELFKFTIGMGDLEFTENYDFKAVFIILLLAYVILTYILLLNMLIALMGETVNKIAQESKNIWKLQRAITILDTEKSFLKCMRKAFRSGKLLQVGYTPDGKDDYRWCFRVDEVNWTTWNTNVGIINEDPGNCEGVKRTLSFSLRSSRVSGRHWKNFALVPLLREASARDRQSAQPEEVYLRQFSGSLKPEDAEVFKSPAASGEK
Procedure: Human embryonic kidney (HEK293) cells were transfected with the pBK-CMV expression construct encoding the full length human capsaicin receptor using standard methods. The transfected cells were selected for two weeks in media containing G418 (400 μg/ml) to obtain a pool of stably transfected cells. Independent clones were isolated from this pool by limiting dilution to obtain clonal stable cell lines for use in subsequent experiments.
For radioligand binding experiments, cells were seeded in T175 cell culture flasks in media without antibiotics and grown to approximately 90% confluency. The flasks were then washed with PBS and harvested in PBS containing 5 mM EDTA. The cells were pelleted by gentle centrifugation and stored at −80° C. until assayed.
Previously frozen cells were disrupted with the aid of a tissue homogenizer in ice-cold HEPES homogenization buffer (5 mM KCl 5, 5.8 mM NaCl, 0.75 mM CaCl2, 2 mM MgCl2, 320 mM sucrose, and 10 mM HEPES pH 7.4). Tissue homogenates were first centrifuged for 10 minutes at 1000×g (4° C.) to remove the nuclear fraction and debris, and then the supernatant from the first centrifugation is further centrifuged for 30 minutes at 35,000×g (4° C.) to obtain a partially purified membrane fraction. Membranes were resuspended in the HEPES homogenization buffer prior to the assay. An aliquot of this membrane homogenate was used to determine protein concentration via the Bradford method (BIO-RAD Protein Assay Kit, #500-0001, BIO-RAD, Hercules, Calif.).
Binding studies with [^3H] […] In this protocol, non-specific RTX binding is reduced by adding bovine alpha1 acid glycoprotein (100 μg per tube) after the binding reaction has been terminated.
Binding assay mixtures are set up on ice and contain [^3H]RTX (specific activity 2200 mCi/ml), 2 μl non-radioactive test compound, 0.25 mg/ml bovine serum albumin (Cohn fraction V), and 5×10^4-1×10^5 VR1-transfected cells. The final volume is adjusted to 500 μl (for competition binding assays) or 1,000 μl (for saturation binding assays) with the ice-cold HEPES homogenization buffer solution (pH 7.4) described above. Non-specific binding is defined as that occurring in the presence of 1 μM non-radioactive RTX (Alexis Corp.; San Diego, Calif.). For saturation binding, [^3H]RTX is added in the concentration range of 7-1,000 pM, using 1 to 2 dilutions. Typically 11 concentration points are collected per saturation binding curve.
Competition binding assays are performed in the presence of 60 pM [^3 H]RTX and various concentrations of test compound. The binding reactions are initiated by transferring the assay mixtures into a 37° C. water bath and are terminated following a 60 minute incubation period by cooling the tubes on ice. Membrane-bound RTX is separated from free, as well as any alpha,-acid glycoprotein-bound RTX, by filtration onto WALLAC glass fiber filters (PERKIN-ELMER, Gaithersburg, Md.) which were pre-soaked with 1.0% PEI (polyethyleneimine) for 2 hours prior to use.
With `Cc1cccnc1-c1ccc2c(Nc3ccc(C(C)C)cc3)nc(COC(C)C)nc2c1` [Compound 105, [2-Isopropoxymethyl-7-(3-methyl-pyridin-2-yl)-quinazolin-4-yl]-(4-isopropyl-phenyl)-amine], the Ki was less than 1000 nM.
`Cc1cccnc1-c1ccc2c(Nc3ccc(C(C)C)cc3)nc(COC3CCOCC3)nc2c1` [Compound 106, (4-Isopropyl-phenyl)-[7-(3-methyl-pyridin-2-yl)-2-(tetrahydro-pyran-4-yloxymethyl)-quinazolin-4-yl]-amine] gave a Ki of less than 1000 nM.
For `COCc1nc(Nc2ccc(C(C)(C)C)cc2)c2ccc(-c3ncccc3C(F)(F)F)nc2n1` [Compound 107, (4-tert-Butyl-phenyl)-[2-methoxymethyl-7-(3-trifluoromethyl-pyridin-2-yl)-pyrido[2,3-d]pyrimidin-4-yl]-amine], the Ki was less than 1000 nM.
The same measure for `COCc1nc(Nc2ccc(C(C)C)cc2)c2ccc(-c3ncccc3C(F)(F)F)nc2n1` [Compound 108, (4-Isopropyl-phenyl)-[2-methoxymethyl-7-(3-trifluoromethyl-pyridin-2-yl)-pyrido[2,3-d]pyrimidin-4-yl]-amine]: less than 1000 nM; for `COCc1nc(Nc2ccc(C(F)(F)F)cc2)c2ccc(-c3ncccc3C(F)(F)F)nc2n1` [Compound 109, [2-Methoxymethyl-7-(3-trifluoromethyl-pyridin-2-yl)-pyrido[2,3-d]pyrimidin-4-yl]-(4-trifluoromethyl-phenyl)-amine]: less than 1000 nM.
The same measure for `COCc1nc(Nc2ccc(C3CCCC3)cc2)c2ccc(-c3ncccc3C(F)(F)F)nc2n1` [Compound 110, (4-Cyclopentyl-phenyl)-[2-methoxymethyl-7-(3-trifluoromethyl-pyridin-2-yl)-pyrido[2,3-d]pyrimidin-4-yl]-amine]: less than 1000 nM; for `CN(C)CCCCOCc1nc(Nc2ccc(C(C)(C)C)cc2)c2ccc(-c3ncccc3C(F)(F)F)cc2n1` [Compound 111, (4-tert-Butyl-phenyl)-[2-(4-dimethylamino-butoxymethyl)-7-(3-trifluoromethyl-pyridin-2-yl)-quinazolin-4-yl]-amine]: less than 1000 nM; for `COCc1nc(Nc2ccc(S(C)(=O)=O)cc2)c2ccc(-c3ncccc3C(F)(F)F)nc2n1` [Compound 112, (4-Methanesulfonyl-phenyl)-[2-methoxymethyl-7-(3-trifluoromethyl-pyridin-2-yl)-pyrido[2,3-d]pyrimidin-4-yl]-amine]: less than 1000 nM.
The same measure for `COCc1nc(Nc2ccc(S(=O)(=O)C(F)(F)F)cc2)c2ccc(-c3ncccc3C(F)(F)F)nc2n1` [Compound 113, [2-Methoxymethyl-7-(3-trifluoromethyl-pyridin-2-yl)-pyrido[2,3-d]pyrimidin-4-yl]-(4-trifluoromethanesulfonyl-phenyl)-amine]: less than 1000 nM.
With `COCc1nc(Nc2ccc(S(=O)(=O)N3CCOCC3)cc2)c2ccc(-c3ncccc3C(F)(F)F)nc2n1` [Compound 114, [2-Methoxymethyl-7-(3-trifluoromethyl-pyridin-2-yl)-pyrido[2,3-d]pyrimidin-4-yl]-[4-(morpholine-4-sulfonyl)-phenyl]-amine], the Ki was less than 1000 nM.
`CCN(CC)CCCOCc1nc(Nc2ccc(C(F)(F)F)cc2)c2ccc(-c3ncccc3C(F)(F)F)cc2n1` [Compound 115, [2-(3-Diethylamino-propoxymethyl)-7-(3-trifluoromethyl-pyridin-2-yl)-quinazolin-4-yl]-(4-trifluoromethyl-phenyl)-amine] showed a Ki of less than 1000 nM.
In the case of `CN(C)CCCOCc1nc(Nc2ccc(C(C)(C)C)cc2)c2ccc(-c3ncccc3C(F)(F)F)cc2n1` [Compound 116, (4-tert-Butyl-phenyl)-[2-(3-dimethylamino-propoxymethyl)-7-(3-trifluoromethyl-pyridin-2-yl)-quinazolin-4-yl]-amine], the Ki is less than 1000 nM.

The Ki is the dissociation constant of the complex between target and ligand, obtained from inhibition or displacement.
